# Experimental data from patent publication US4420639A, “Aromatic compounds” (Beecham Group Limited, priority 1973, dated 1983).
# Columns and labels:
# oestrogenicity = experiment: Oestrogenic effects (general statement); assay type: in vivo; conditions: at the therapeutic dose
# [1] = tested on: Carrageenin Induced Oedema; experiment: Carrageenin Induced Oedema in Rats; assay type: in vivo, rat; conditions: 5, 10, 35 and 70 mg/kg p.o.
# Excerpt: a. Carrageenin Induced Oedema in Rats.
# [2] = tested on: gastric erosions or ulceration; experiment: Ulcerogenic Activity in Rats; assay type: in vivo, rat; conditions: 250 mg/kg p.o. or 500 mg/kg p.o.
# Excerpt: m. Ulcerogenic Activity in Rats.
# [3] = tested on: cultured mouse peritoneal macrophages; experiment: Macrophage Plasmongen Activator Release test; assay type: cell-based; conditions: 1 mg/ml
# Adrenal/Pitutary Axis = experiment: Interactions with the Adrenal/Pitutary Axis; assay type: in vivo; conditions: five days at 140 mg/kg p.o./day; response to ACTH or ether stress
# Excerpt: h. Interactions with the Adrenal/Pitutary Axis.
# [4] = tested on: uterus / endometrium (Clauberg test); experiment: Gestagenic Activity in Rabbits (Clauberg test); assay type: in vivo, rabbit; conditions: 200 mg/kg p.o. for 4 days
# Excerpt: k. Gestagenic Activity in Rabbits.
# [5] = tested on: pyresis induced by Shigella endotoxin; experiment: Anti-pyretic Effect in Rabbits; assay type: in vivo, rabbit; conditions: doses down to 100 mg/kg p.o.; intravenous Shigella endotoxin
# Excerpt: g. Anti-pyretic Effect in Rabbits.
# pyloric ligated rat = experiment: Gastric Damage in Pyloric Ligated Rats; assay type: in vivo; conditions: up to 200 mg/kg intra-duadenally
# Excerpt: l. Gastric Damage in Pyloric Ligated Rats.
# [6] = tested on: stomach / gastro-intestinal tract; experiment: Gastro-intestinal irritancy at or near the therapeutic dose (general statement); assay type: in vivo
# Adjuvant arthritis = experiment: Adjurant Arthritis in Rats; assay type: in vivo, rat; conditions: daily administration of 60 mg/kg p.o.
# Protocol: d. Adjurant Arthritis in Rats.
# Adjuvant arthritis is reduced in rats by the daily administration of doses of 60 mg/kg p.o.
# [7] = tested on: Cotton Pellet Induced Granuloma; experiment: Cotton Pellet Induced Granuloma in Rats; assay type: in vivo, rat; conditions: 50 mg/kg p.o. dosed from day 0 to 5 days
# Protocol: c. Cotton Pellet Induced Granuloma in Rats. Consistent activity (reducing induced granuloma by more than 30%) has been observed at 50 mg/kg p.o. dosed from day 0 to 5 days.
# [8] = tested on: ovariectomised rats, uterine weight; experiment: Oestrogenic Test in Rats (uterine weight); assay type: in vivo, rat; conditions: 200 mg/kg p.o. and 600 mg/kg p.o. for 4 days
# Excerpt: i. Oestrogenic Test in Rats.
smiles,measurement,setting,value
COc1ccc2cc(CCC(C)=O)ccc2c1 [4-(6'-methoxy-2'-naphthyl)butan-2-one],oestrogenic effects,oestrogenicity,not causing either oestrogenic effects
same,reduction in induced oedema volume,[1],significant reduction in induced oedema volume
same,gastric erosions at longer contact times,[2]; longer contact times than 4 hours,did lead in some cases to some degree of erosions
same,gastric erosions or ulceration,"[2]; starved 18 hours, examined 1 or 4 hours after dosing",did not give rise to gastric erosions or ulceration
same,inhibition of the release of plasmogen activator,[3],slight inhibition
same,interference with release of corticosteroids from the adrenal gland,Adrenal/Pitutary Axis,does not interfere with release of corticosteroids
same,uterine hypertrophy or progestational changes in the endometrium,[4],did not result in uterine hypertrophy or progestational changes in the endometrium
same,reduction of pyresis,[5],reduced pyresis
same,overt gastric damage,pyloric ligated rat,nor did overt gastric damage result
same,systemically mediated effect on the volume of gastric secretion,pyloric ligated rat,have not been found to have a systemically mediated effect on the volume of gastric secretion
same,irritation of the stomach / gastric-irritant effects,[6],not causing either oestrogenic effects or pronounced gastric-irritant effects
same,reduction of adjuvant arthritis,Adjuvant arthritis,reduced
same,"changes in body weight or in the weight of the spleen, thymus, kidney, liver or adrenal glands",[7],not accompanied by marked changes
same,reduction of induced granuloma,[7],more than 30%
same,increase in uterine weight,[8],did not result in any increase in uterine weight
